According to publication PMC10309634, “Computer simulation approach to the identification of visfatin-derived angiogenic peptides” (PLOS ONE, 2023):

How the values were obtained:
Format in all cases: cell-based, human
[1] = tested on: HUVECs; test: In vitro tube formation assay on Matrigel; settings: 4 hours on Matrigel
Experimental: HUVECs (2×10^4 cells/well) were seeded on a layer of polymerized Matrigel and treated with or without visfatin-derived peptides. The Matrigel culture was incubated at 37°C in the EGM supplemented with EGM-Supplement Mix® containing 1% FBS. After 4 hours, changes in the cell morphology were observed using a phase-contrast microscope and photographed at 40× magnification. Each sample was assayed in duplicate, and independent experiments were repeated three times. Angiogenesis was analyzed with ImageJ software using an angiogenesis analyzer (Bethesda, MD, USA).

[2] = tested on: HUVECs; test: In vitro wound healing migration assay; settings: 18 h, scratch wound, compared to the control group
Experimental: HUVECs were seeded in 24-well plates (SPL) at a density of 2×10^5 cells and incubated in EGM medium supplemented with EGM-Supplement Mix® containing 1% FBS overnight. Cells were scratched using a P200 pipette tip to induce a wound. Subsequently, then b-FGF (25ng/ml), visfatin (1000 ng/ml), and visfatin-derived peptides (0.5μM and 2.0μM) were added and the culture was maintained for 18 hours to allow the cells to migrate. The migration patterns were observed using a phase-contrast microscope and images were captured. The wound diameters were photographed at 16–24 hours. Wound closure was determined using optical microscopy at 40× magnification. Migration was quantified by counting the number of cells that had moved beyond the reference line.

[3] = tested on: HUVECs; test: MTT cell cytotoxicity assay; settings: MTT, 0.1, 0.5, 1.0 and 2.0 μM, 24 hours, triplicate
Experimental: HUVECs were grown in EGM-2 supplemented with an EGM-2 Supplement Mix® (PromoCell) containing 2% FBS at a density of 1×10^4 cells in 96-well plates (SPL Inc., Gyeonggido, Korea). After 24 hours, the cells were treated with 1000ng/ml visfatin (Adipogen Life Science) and various concentrations of visfatin-derived peptides (0.1, 0.5, 1.0, and 2.0 μM), and then incubated overnights in an atmosphere of 5% CO2. The 3-(4,5-Dimethylthiazol-2-yl)-2,5-diphenyltetrazolium bromide (MTT) assay reagents (Sigma-Aldrich, St. Louis, MO, USA) were as added directly to each well to a final concentration of 0.5 mg/ml. After 4 hours, the medium was removed, the formazan crystals formed in the cells were dissolved in DMSO, and the absorbance of the formazan solution was measured using a Synergy HTX Multi-Mode Reader (BIO-TEK, Vermont, USA) with a 540 nm filter. Each sample was assayed in triplicate.

[4] = tested on: HUVECs; test: In vitro trans-well invasion assay; settings: 24 hours, Matrigel-coated trans-well, compared to the control and visfatin-treated groups
Experimental: The invasion capacity of the cells was determined using a 24-well trans-well system. The upper side of the trans-well membrane was coated with 1 mg/mL Matrigel at 10 μL/well at room temperature for 1 hour. The EGM-2 medium (0.5 ml)was added to the lower part of trans-well chamber. HUVECs (2×10^4 cells) and EGM medium (0.1 ml) were placed on the upper compartment of the trans-well. And then b-FGF (25ng/ml), visfatin (1000 ng/ml), and visfatin-derived peptides (0.5μM and 2.0μM) were added to the upper compartment of the trans-well. Cells were incubated at 37°C and 5% CO2 for 24 hours, fixed with methanol, and stained with hematoxylin and eosin. The cells on the upper surface of the membrane were removed by wiping with a cotton swab. Cell invasion was determined by counting the number of whole cells in a single filter using optical microscopy at 40× magnification. Each sample was assayed in duplicate, and independent experiments were repeated three times.

[5] = tested on: visfatin mRNA expression; test: RT-qPCR of visfatin mRNA in HUVECs; settings: 24 hours, RT-qPCR vs GAPDH, compared to the control group
Experimental: (§1) After treating HUVECs with visfatin-derived peptides for 24 hours, the total RNA was isolated from the cultured HUVECs using the Tri-RNA reagent (Favorgen Biotech Corp., Kaohsiung, Taiwan) according to the manufacturer’s instructions. cDNA was synthesized from 1 μg of total RNA using the iScript^TM cDNA Synthesis Kit (Bio-Rad Laboratories, Inc., Hercules, CA, USA). The mRNA expression levels of VEGF and visfatin were carried out using Applied Biosystems 7500 software (Applied Biosystems Inc., Waltham, MA, USA). Real-time PCR was performed using SYBR Green Q-PCR Master Mix (Samjung Bio Science, Daejeon, South Korea). The reaction conditions were as follows: initial denaturation at 95°C for 5 min, amplification at 95°C for 15 sec, and at 60°C for 1 min. All PCR amplifications were performed for 40 cycles. The specific primers used were as follows: 5’-[…]-3’ (forward) and 5’-GTG ATGGCATGGACTGTGGT-3’ (reverse) for glyceraldehyde-3-phosphate dehydrogenase (GAPDH); 5’-GGAGG GTGACGGGGTGAAGG-3’ (forward) and 5’-[…]-3’ (reverse) for visfatin; and 5’-[…]-3’ (forward) and 5’-[…]-3’ (reverse) for VEGF-A. The relative changes in the gene expression were determined using the 2^-ΔΔCt method and the results were normalized to the expression of GAPDH.

[6] = tested on: VEGF-A mRNA expression; test: RT-qPCR of VEGF-A mRNA in HUVECs; settings: 24 hours, RT-qPCR vs GAPDH, compared to the control group
Experimental: as §1

EYKLHDFGYRGV [Peptide-2, visfatin-derived peptide … (12AA), synthesised by GL Biochem]
number of master junctions ([1]; 0.5 μM, vs control): significantly increased | number of meshes ([1]; 0.5 μM, vs control): significantly increased | increase in cell migration ([2]; 2.0 μM): two-fold increase | cytotoxic effect / viability of HUVECs [3]: no cytotoxic effect | increase of cell invasion ([4]; 2.0 μM): more than two-fold | mRNA expression of visfatin ([5]; 0.5 μM): significantly increased | mRNA expression of visfatin ([5]; 2.0 μM): significantly increased | mRNA expression of VEGF-A ([6]; 0.5 μM): significantly increased | mRNA expression of VEGF-A ([6]; 2.0 μM): remarkably increased

LEYKLHDFGY [Peptide-1, visfatin-derived peptide […]; (10AA), synthesised by GL Biochem]
number of master junctions ([1]; 0.5 μM, vs control): significantly increased | number of meshes ([1]; 0.5 μM, vs control): significantly increased | number of master junctions ([1]; 2.0 μM, vs control): significantly increased | increase in cell migration ([2]; 0.5 μM): two-fold increase | cytotoxic effect / viability of HUVECs [3]: no cytotoxic effect | increase of cell invasion ([4]; 0.5 μM): more than two-fold | mRNA expression of visfatin ([5]; 0.5 μM): significantly increased | mRNA expression of visfatin ([5]; 2.0 μM): did not increase | mRNA expression of VEGF-A ([6]; 0.5 μM): significantly increased | mRNA expression of VEGF-A ([6]; 2.0 μM): did not increase

b-FGF: recombinant human basic fibroblast growth factor, positive control
number of meshes ([1]; positive controls, compared to the control group): not significantly different
